Test results taken from ChEMBL document CHEMBL6134888, “Challenging the "Undruggable"─Targeting STAT3 but Identifying Potent TrkA-Targeted Inhibitors” (J Med Chem, 2025).
Activity calls are given as the source filed them. The calls are words filed in the database; no cut-off is given here.

How the values were obtained:
KM12 = assay: cells; conditions: Homo sapiens, KM12, 72 h
Description: Cytotoxicity against human KM12 cells assessed as inhibition of cell viability incubated for 72 hrs by resazurin based analysis

[1] = target: T1, High affinity nerve growth factor receptor (Homo sapiens, UniProt P04629); conditions: dose 100.0 nM
Description: Inhibition of TRKA (unknown origin) at 100 nM ScanElect kinase assay relative to control

[2] = target: T1, High affinity nerve growth factor receptor; conditions: dose 100.0 nM; remark: listed apart in the source
Description: Inhibition of TRKA (unknown origin) at 100 nM relative to control

MDA-MB-231 = assay: Cytotoxicity against human MDA-MB-231 cells assessed as effect on cell viability incubated for 72 hrs by resazurin based analysis; conditions: MDA-MB-231, 72 h
[3] = target: Tyrosine-protein kinase JAK2 (Homo sapiens, UniProt O60674); assay: Inhibition of JAK2 (unknown origin) by Z-LYTE Kinase assay
Chain of Tyrosine-protein kinase JAK2 (O60674 whole entry): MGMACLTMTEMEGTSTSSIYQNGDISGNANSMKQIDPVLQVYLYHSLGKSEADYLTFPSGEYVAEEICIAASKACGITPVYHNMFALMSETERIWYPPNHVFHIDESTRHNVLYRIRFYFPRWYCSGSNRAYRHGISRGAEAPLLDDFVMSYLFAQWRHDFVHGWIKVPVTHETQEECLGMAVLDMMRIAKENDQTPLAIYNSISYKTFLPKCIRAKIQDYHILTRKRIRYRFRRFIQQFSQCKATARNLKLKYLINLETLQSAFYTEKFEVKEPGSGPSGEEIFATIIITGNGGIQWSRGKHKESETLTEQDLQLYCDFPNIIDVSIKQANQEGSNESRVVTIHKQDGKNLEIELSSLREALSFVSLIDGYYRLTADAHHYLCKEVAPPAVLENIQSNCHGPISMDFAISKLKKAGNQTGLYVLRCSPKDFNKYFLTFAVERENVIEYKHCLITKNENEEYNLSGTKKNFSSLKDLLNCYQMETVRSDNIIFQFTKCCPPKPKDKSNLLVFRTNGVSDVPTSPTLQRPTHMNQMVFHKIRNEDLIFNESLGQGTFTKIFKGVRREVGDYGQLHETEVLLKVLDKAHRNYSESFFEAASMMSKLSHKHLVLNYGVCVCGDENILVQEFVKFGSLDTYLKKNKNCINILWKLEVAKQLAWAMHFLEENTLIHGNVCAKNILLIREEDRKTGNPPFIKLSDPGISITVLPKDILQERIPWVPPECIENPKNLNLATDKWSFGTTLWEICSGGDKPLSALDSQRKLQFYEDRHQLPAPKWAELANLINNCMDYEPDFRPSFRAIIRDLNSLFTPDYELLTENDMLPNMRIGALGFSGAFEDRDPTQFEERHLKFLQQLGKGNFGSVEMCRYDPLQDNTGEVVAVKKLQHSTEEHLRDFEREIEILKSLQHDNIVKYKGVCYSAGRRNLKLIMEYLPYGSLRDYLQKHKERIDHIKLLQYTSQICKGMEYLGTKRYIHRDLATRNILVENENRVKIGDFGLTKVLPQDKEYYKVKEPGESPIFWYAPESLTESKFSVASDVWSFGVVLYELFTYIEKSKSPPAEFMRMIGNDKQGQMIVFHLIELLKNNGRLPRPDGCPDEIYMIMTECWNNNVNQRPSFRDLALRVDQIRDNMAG

LS174T = assay: Cytotoxicity against human LS174T cells assessed as effect on cell viability incubated for 72 hrs by resazurin based analysis
[4] = target: Proto-oncogene tyrosine-protein kinase Src (Homo sapiens, UniProt P12931); assay: Inhibition of SRC (unknown origin) by Z-LYTE Kinase assay
Chain of Proto-oncogene tyrosine-protein kinase Src (P12931 2-536 limits assumed): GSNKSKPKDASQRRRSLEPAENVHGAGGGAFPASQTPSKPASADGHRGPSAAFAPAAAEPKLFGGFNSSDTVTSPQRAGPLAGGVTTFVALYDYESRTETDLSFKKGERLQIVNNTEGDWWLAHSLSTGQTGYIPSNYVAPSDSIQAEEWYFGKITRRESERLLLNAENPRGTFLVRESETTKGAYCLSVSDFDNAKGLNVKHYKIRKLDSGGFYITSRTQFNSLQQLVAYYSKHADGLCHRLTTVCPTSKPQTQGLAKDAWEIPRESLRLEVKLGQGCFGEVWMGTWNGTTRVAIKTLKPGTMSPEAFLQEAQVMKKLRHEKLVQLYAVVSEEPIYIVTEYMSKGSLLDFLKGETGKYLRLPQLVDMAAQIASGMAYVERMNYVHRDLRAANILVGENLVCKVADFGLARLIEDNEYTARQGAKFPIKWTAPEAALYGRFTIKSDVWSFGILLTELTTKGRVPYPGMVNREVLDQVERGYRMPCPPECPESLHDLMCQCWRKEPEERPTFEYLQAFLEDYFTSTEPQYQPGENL

[5] = target: Signal transducer and activator of transcription 3 (Homo sapiens) (UniProt P40763); assay: Induction of thermal stabilization of recombinant STAT3 (127 to 668 residues)(unknown origin) incubated for 3 hrs by SYPRO orange dye based DSF analysis; conditions: dose 10-100 µM
Chain of Signal transducer and activator of transcription 3 (Homo sapiens) (P40763 whole entry, the tested form may be a part): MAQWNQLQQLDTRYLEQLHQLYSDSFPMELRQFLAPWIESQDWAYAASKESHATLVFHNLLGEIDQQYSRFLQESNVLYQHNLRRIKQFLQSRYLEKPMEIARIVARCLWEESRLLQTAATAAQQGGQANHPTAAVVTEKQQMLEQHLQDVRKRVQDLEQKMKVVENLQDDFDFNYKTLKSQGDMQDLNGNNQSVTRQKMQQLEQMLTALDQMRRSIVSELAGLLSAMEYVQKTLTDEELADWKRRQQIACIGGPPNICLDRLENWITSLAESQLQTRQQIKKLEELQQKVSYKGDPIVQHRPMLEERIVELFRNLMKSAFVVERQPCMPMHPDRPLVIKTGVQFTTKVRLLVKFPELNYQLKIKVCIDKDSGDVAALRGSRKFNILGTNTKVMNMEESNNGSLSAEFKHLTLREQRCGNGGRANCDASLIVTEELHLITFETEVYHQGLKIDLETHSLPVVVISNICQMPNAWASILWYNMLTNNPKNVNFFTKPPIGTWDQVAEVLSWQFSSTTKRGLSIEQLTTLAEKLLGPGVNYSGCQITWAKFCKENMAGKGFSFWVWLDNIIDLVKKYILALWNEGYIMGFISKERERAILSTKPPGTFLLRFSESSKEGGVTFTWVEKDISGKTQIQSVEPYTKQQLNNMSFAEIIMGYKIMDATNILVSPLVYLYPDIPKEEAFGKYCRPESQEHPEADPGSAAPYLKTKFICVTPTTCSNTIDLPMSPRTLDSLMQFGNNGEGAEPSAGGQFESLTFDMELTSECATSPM

[6] = target: Signal transducer and activator of transcription 3 (Homo sapiens) (UniProt P40763); assay: Induction of thermal stabilization of recombinant STAT3 (127 to 668 residues)(unknown origin) assessed as change in melting temperature incubated for 3 hrs by SYPRO orange dye based DSF analysis
[7] = target: T1, High affinity nerve growth factor receptor; conditions: dose 10.0 nM
Description: Inhibition of TRKA (unknown origin) at 10 nM by Z-LYTE Kinase assay relative to control

[8] = target: T1, High affinity nerve growth factor receptor; conditions: dose 100.0 nM; remark: listed apart in the source
Description: Inhibition of TRKA (unknown origin) at 100 nM by Z-LYTE Kinase assay relative to control

[9] = target: Signal transducer and activator of transcription 3 (Homo sapiens) (UniProt P40763); assay: Induction of thermal stabilization of recombinant STAT3 (127 to 668 residues)(unknown origin) assessed as reduction in fluorescence intensity incubated for 3 hrs by SYPRO orange dye based DSF analysis; conditions: dose 100.0 µM
[10] = target: L-lactate dehydrogenase A chain (Homo sapiens, UniProt P00338); assay: Inhibition of LDHA (unknown origin)
[11] = target: Signal transducer and activator of transcription 3 (Homo sapiens) (UniProt P40763); assay: Binding affinity to STAT3 (unknown origin) SH2 domain by FP assay
[12] = target: Signal transducer and activator of transcription 3 (Homo sapiens) (UniProt P40763); assay: Induction of thermal stabilization of STAT3 (unknown origin) at 100 uM by thermal shift assay
[13] = target: BDNF/NT-3 growth factors receptor (Homo sapiens, UniProt Q16620); assay: Binding affinity to TRKB (unknown origin) assessed as dissociation constant by KINOMEscan assay
Chain of BDNF/NT-3 growth factors receptor (Q16620 whole entry): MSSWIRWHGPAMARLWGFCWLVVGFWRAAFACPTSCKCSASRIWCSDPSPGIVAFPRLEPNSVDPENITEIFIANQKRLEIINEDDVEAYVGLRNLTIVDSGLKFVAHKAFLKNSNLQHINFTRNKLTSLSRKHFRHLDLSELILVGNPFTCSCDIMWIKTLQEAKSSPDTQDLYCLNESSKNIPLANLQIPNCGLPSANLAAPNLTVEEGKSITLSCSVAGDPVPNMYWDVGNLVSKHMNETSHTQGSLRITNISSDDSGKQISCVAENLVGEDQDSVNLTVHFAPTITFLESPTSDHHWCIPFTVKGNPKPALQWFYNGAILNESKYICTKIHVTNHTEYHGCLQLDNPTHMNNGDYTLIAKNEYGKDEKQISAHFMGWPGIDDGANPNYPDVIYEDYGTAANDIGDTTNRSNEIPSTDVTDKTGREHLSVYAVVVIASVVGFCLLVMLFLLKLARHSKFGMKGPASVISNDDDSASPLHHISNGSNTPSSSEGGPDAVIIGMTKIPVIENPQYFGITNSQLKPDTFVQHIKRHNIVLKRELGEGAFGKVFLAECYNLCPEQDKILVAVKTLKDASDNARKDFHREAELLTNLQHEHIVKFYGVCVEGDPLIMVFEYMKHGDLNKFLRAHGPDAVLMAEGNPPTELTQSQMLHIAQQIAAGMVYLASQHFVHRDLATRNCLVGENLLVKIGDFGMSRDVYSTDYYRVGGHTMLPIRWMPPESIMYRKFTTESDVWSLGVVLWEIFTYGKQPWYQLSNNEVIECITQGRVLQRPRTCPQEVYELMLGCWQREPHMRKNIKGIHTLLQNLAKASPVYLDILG

[14] = target: Signal transducer and activator of transcription 3 (Homo sapiens) (UniProt P40763); assay: Inhibition of STAT3 in oncostatin M-stimulated human U3A cells at 20 uM pretreated with compound for 1 hr followed by oncostatin M induction and measured after 6 hrs by luciferase assay relative to control; assay type: cell-based

T1 sequence (P04629 33-796 limits assumed): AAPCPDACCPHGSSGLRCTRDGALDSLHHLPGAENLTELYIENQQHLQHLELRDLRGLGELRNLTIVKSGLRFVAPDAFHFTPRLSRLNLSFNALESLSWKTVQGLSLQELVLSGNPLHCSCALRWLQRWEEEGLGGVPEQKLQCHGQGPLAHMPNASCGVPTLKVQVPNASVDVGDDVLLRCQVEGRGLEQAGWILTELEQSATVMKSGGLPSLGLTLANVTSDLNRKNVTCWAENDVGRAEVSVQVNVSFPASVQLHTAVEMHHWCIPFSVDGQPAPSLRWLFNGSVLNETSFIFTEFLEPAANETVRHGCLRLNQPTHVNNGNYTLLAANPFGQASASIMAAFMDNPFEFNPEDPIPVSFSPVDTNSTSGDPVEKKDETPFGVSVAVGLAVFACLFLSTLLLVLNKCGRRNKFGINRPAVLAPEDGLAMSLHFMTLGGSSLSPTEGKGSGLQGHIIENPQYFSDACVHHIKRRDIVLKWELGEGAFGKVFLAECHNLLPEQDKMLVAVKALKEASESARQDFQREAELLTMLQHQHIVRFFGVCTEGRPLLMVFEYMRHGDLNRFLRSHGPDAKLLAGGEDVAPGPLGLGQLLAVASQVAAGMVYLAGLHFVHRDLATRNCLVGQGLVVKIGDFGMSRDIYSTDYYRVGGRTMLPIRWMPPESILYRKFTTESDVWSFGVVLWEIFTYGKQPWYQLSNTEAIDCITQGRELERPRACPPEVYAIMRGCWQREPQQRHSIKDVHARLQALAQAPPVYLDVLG

Compound | inhibition [1] [%] | inhibition [2] [%] | further results
CN(C)c1cccc(-c2cnc(N)c(NCc3cccnc3)n2)c1 | 31 | 50 | IC50 (KM12): 3.7 µM
C[C@@H](Nc1nc(-c2cccc(N(C)C)c2)cnc1N)c1ccccc1 | – | – | IC50 (MDA-MB-231): > 10 µM; IC50 [3]: 0.53 µM; IC50 (LS174T): > 10 µM; IC50 (KM12): < 0.3 µM; IC50 [4]: 1.11 µM
CN(C)c1cccc(-c2cnc(N)c(NCc3cccc(-c4ccccc4)c3)n2)c1 | 5 | 42 | –
CN(C)c1cccc(-c2cnc(N)c(NCc3cccc(C(F)(F)F)c3)n2)c1 | 4 | 28 | –
CN(C)c1cccc(-c2cnc(N)c(NCc3ccccc3)n2)c1 | 21 | 79 | –
COC(=O)c1cccc(CNc2nc(-c3cccc(N(C)C)c3)cnc2N)c1 | 6 | 48 | –
C[C@@H](Nc1nc(-c2cc(C(F)(F)F)cc(C(F)(F)F)c2)cnc1N)c1ccccc1 | – | – | Activity [5]: Dose-dependent-effect; ΔTm [6]: 0.9 °C
C[C@@H](Nc1nc(-c2cccc(C(=O)N(C)C)c2)cnc1N)c1ccccc1 | – | – | inhibition [7]: 34%; inhibition [8]: 74%
C[C@H](Nc1nc(-c2cc(C(F)(F)F)cc(C(F)(F)F)c2)cnc1N)c1ccccc1 | – | – | Activity [5]: Dose-dependent-effect; ΔTm [6]: 0.9 °C
C[C@H](Nc1nc(-c2cccc(C(=O)N(C)C)c2)cnc1N)c1ccccc1 | – | – | inhibition [7]: 10%; inhibition [8]: 0%
Cc1ccc(CNc2nc(-c3cccc(N(C)C)c3)cnc2N)cc1C | 6 | 35 | –
Cc1cccc(CNc2nc(-c3cccc(N(C)C)c3)cnc2N)c1 | 6 | 26 | –
Nc1ncc(-c2cc(C(F)(F)F)cc(C(F)(F)F)c2)nc1NCc1ccco1 | – | – | Activity [5]: Dose-dependent-effect; ΔTm [6]: 0.9 °C
CC(=O)Nc1cccc(-c2cnc(N)c(NC(C)c3ccccc3)n2)c1 (racemic) | – | – | IC50 [3]: 0.361 µM; Kd [13]: 0.06 µM; IC50 [4]: 1.56 µM
CC(Nc1nc(-c2ccc(-c3ccccc3)cc2)cnc1N)c1ccccc1 (racemic) | 0 | – | –
CC(Nc1nc(-c2cccc(N(C)C)c2)cnc1N)c1ccc(S(C)(=O)=O)cc1 (racemic) | 4 | 46 | –
CC(Nc1nc(-c2cccc3ccccc23)cnc1N)c1ccccc1 (racemic) | 14 | – | –
CCC(Nc1nc(-c2cccc(N(C)C)c2)cnc1N)c1ccccc1 (racemic) | 24 | 73 | –
CN(C)c1cccc(-c2cnc(N)c(NC(c3ccccc3)C(C)(C)C)n2)c1 (racemic) | 11 | 58 | –
COc1ccc(C(C)Nc2nc(-c3cccc(N(C)C)c3)cnc2N)cc1 (racemic) | 7 | 17 | –
COc1cccc(C(C)Nc2nc(-c3cccc(N(C)C)c3)cnc2N)c1 (racemic) | 41 | 66 | –
Cc1ccc(C(C)Nc2nc(-c3cccc(N(C)C)c3)cnc2N)cc1 (racemic) | 10 | 11 | –
O=C(Nc1cnn2ccc(N3CCC[C@@H]3c3cc(F)ccc3F)nc12)N1CC[C@H](O)C1 [LAROTRECTINIB] | – | – | IC50 (MDA-MB-231): > 10 µM; IC50 (LS174T): > 10 µM; IC50 (KM12): 0.0038 µM

Further lines, with some results ahead:

inhibition [1] [%] | inhibition [2] [%] | Compound | further results
28 | 55 | COC(=O)c1cccc(-c2cnc(N)c(NC(C)c3ccccc3)n2)c1 (racemic) | Activity [9]: Dose-dependent-effect; IC50 [10]: 4 µM; Activity [11]: Active; Activity [12]: Active
41 | 67 | CC(Nc1nc(-c2cccc(C(=O)N(C)C)c2)cnc1N)c1ccccc1 (racemic) | IC50 (KM12): < 0.3 µM
4 | 10 | CC(Nc1nc(-c2cc(C(F)(F)F)cc(C(F)(F)F)c2)cnc1N)c1ccccc1 (racemic) | Activity [9]: Dose-dependent-effect; IC50 (KM12): 5.3 µM; Activity [12]: Active; inhibition [14]: 40%
2 | 21 | CC(C)Oc1cccc(-c2cnc(N)c(NC(C)c3ccccc3)n2)c1 (racemic) | Activity [9]: Dose-dependent-effect; Activity [11]: Active; Activity [12]: Active
0 | – | CC(Nc1nc(-c2cc(Cl)cc(Cl)c2)cnc1N)c1ccccc1 (racemic) | Activity [9]: Dose-dependent-effect; Activity [11]: Active; Activity [12]: Active
4 | – | CC(Nc1nc(-c2ccc(F)cc2)cnc1N)c1ccccc1 (racemic) | Activity [9]: Dose-dependent-effect; Activity [11]: Active; Activity [12]: Active
23 | 38 | CC(Nc1nc(-c2ccc(NS(C)(=O)=O)cc2)cnc1N)c1ccccc1 (racemic) | –
14 | – | CC(Nc1nc(-c2ccc3c(c2)OCO3)cnc1N)c1ccccc1 (racemic) | –
3 | – | CC(Nc1nc(-c2cccc(F)c2)cnc1N)c1ccccc1 (racemic) | Activity [9]: Dose-dependent-effect; Activity [11]: Active; Activity [12]: Active
11 | 44 | CC(Nc1nc(-c2cccc(N(C)C)c2)cnc1N)c1cccc(C(F)(F)F)c1 (racemic) | –
0 | – | CC(Nc1nc(-c2cccc(O)c2)cnc1N)c1ccccc1 (racemic) | –
28 | 55 | CC(Nc1nc(-c2cccc([N+](=O)[O-])c2)cnc1N)c1ccccc1 (racemic) | Activity [9]: Dose-dependent-effect; Activity [11]: Active; Activity [12]: Active
2 | 38 | CC(Nc1nc(-c2ccccc2)cnc1N)c1ccccc1 (racemic) | –
36 | – | COC(=O)c1ccc(-c2cnc(N)c(NC(C)c3ccccc3)n2)cc1 (racemic) | –
0 | – | COc1cccc(OC)c1-c1cnc(N)c(NC(C)c2ccccc2)n1 (racemic) | Activity [9]: Dose-dependent-effect; Activity [11]: Active; Activity [12]: Active
2 | – | Cc1cc(C)cc(-c2cnc(N)c(NC(C)c3ccccc3)n2)c1 (racemic) | –
